Data reported in patent US7803810B2, “Inhibitors” (Probiodrug AG, priority 2007, dated 2010).

Target: glutaminyl cyclase (QC) (Homo sapiens, UniProt Q16769)
Assay: QC inhibitor assay (fluorometric / spectrophotometric QC activity assays with inhibitor added)
Format: biochemical
Details: QC inhibition, 30° C.; for Ki: fit to competitive inhibition
Method: All measurements were performed with a BioAssay Reader HTS-7000Plus for microplates (Perkin Elmer) at 30° C. QC activity was evaluated fluorometrically using […]. The samples consisted of 0.2 mM fluorogenic substrate, 0.25 U pyroglutamyl aminopeptidase (Unizyme, Horsholm, Denmark) in 0.2 M Tris/HCl, pH 8.0 containing 20 mM EDTA and an appropriately diluted aliquot of QC in a final volume of 250 μl. Excitation/emission wavelengths were 320/410 nm. The assay reactions were initiated by addition of glutaminyl cyclase. QC activity was determined from a standard curve of β-naphthylamine under assay conditions. One unit is defined as the amount of QC catalyzing the formation of 1 μmol pGlu-βNA from H-Gln-βNA per minute under the described conditions.
In a second fluorometric assay, QC was activity determined using H-Gln-AMC as substrate. Reactions were carried out at 30° C. utilizing the NOVOStar reader for microplates (BMG labtechnologies). The samples consisted of varying concentrations of the fluorogenic substrate, 0.1 U pyroglutamyl aminopeptidase (Qiagen) in 0.05 M Tris/HCl, pH 8.0 containing 5 mM EDTA and an appropriately diluted aliquot of QC in a final volume of 250 μl. Excitation/emission wavelengths were 380/460 nm. The assay reactions were initiated by addition of glutaminyl cyclase. QC activity was determined from a standard curve of 7-amino-4-methylcoumarin under assay conditions. The kinetic data were evaluated using GraFit software.
This novel assay was used to determine the kinetic parameters for most of the QC substrates. […] Samples consisted of the respective QC substrate, 0.3 mM NADH, 14 mM α-Ketoglutaric acid and 30 U/ml glutamate dehydrogenase in a final volume of 250 μl. Reactions were started by addition of QC and persued by monitoring of the decrease in absorbance at 340 nm for 8-15 min.
The initial velocities were evaluated and the enzymatic activity was determined from a standard curve of ammonia under assay conditions. All samples were measured at 30° C., using either the […]luor Plus or the Sunrise (both from TECAN) reader for microplates. Kinetic data was evaluated using GraFit software.
For inhibitor testing, the sample composition was the same as described above, except of the putative inhibitory compound added. For a rapid test of QC-inhibition, samples contained 4 mM of the respective inhibitor and a substrate concentration at 1 KM. For detailed investigations of the inhibition and determination of Ki-values, influence of the inhibitor on the auxiliary enzymes was investigated first. […] The inhibitory constant was evaluated by fitting the set of progress curves to the general equation for competitive inhibition using GraFit software.

Sequence of glutaminyl cyclase (QC) (Q16769 29-361): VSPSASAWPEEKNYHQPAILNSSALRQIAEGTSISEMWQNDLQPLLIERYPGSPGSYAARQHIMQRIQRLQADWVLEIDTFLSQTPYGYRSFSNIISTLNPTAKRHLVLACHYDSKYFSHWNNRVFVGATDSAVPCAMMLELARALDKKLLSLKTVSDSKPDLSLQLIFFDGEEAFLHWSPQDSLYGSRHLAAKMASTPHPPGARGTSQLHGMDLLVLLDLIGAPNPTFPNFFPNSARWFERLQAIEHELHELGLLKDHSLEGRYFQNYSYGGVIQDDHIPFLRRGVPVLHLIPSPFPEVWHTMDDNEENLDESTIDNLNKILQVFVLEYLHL

Row | Compound | IC50 [µM] | Ki [µM]
1 | COc1ccc(-c2cccn3cncc23)cc1C [Example 24, 8-(4-methoxy-3-methylphenyl)H-imidazo[1,5-a]pyridine] | 26.4 | 2.66
2 | COc1c(C)cc(-c2cccn3cncc23)cc1C [Example 27, 8-(4-methoxy-3,5-dimethylphenyl)H-imidazo[1,5-a]pyridine] | 27.4 | 4.92
3 | c1ccc(COc2ccc(-c3cccn4cncc34)cc2)cc1 [Example 17, 8-(4-(benzyloxy)phenyl)H-imidazo[1,5-a]pyridine] | 4.36 | 0.75
4 | CCCCc1cccn2cncc12 [Example 1, 8-butylH-imidazo[1,5-a]pyridine] | 13.2 | 3.7
5 | c1cc(-c2ccc3c(c2)OCO3)c2cncn2c1 [Example 23, 8-(benzo[d][1,3]dioxol-6-yl)H-imidazo[1,5-a]pyridine] | 29.2 | 3.46
6 | c1ccc(-c2ccc(-c3cccn4cncc34)cc2)cc1 [Example 20, 8-(biphen-4-yl)H-imidazo[1,5-a]pyridine] | 20.6 | 2.13
7 | c1cc(-c2ccc3c(c2)OCCO3)c2cncn2c1 [Example 25, 8-(2,3-dihydrobenzo[b][1,4]dioxin-7-yl)H-imidazo[1,5-a]pyridine] | 9.17 | 1.19
8 | CCOc1ccc(-c2cccn3cncc23)cc1 [Example 22, 8-(4-ethoxyphenyl)H-imidazo[1,5-a]pyridine] | 14.3 | 1.89
9 | c1ccc(COc2cccc(-c3cccn4cncc34)c2)cc1 [Example 16, 8-(3-(benzyloxy)phenyl)H-imidazo[1,5-a]pyridine] | 7.81 | 1.48
10 | CC(C)Cc1cccn2cncc12 [Example 3, 8-isobutylH-imidazo[1,5-a]pyridine] | 20 | 3.7
11 | COc1ccc(-c2cccn3cncc23)cc1OC [Example 26, 8-(3,4-dimethoxyphenyl)H-imidazo[1,5-a]pyridine] | 15.4 | 9.38

The next lines start with the values.

Row | IC50 [µM] | Ki [µM] | Compound
12 | 17.2 | 2.25 | Clc1cccc(-c2cccn3cncc23)c1 [Example 9, 8-(3-chlorophenyl)H-imidazo[1,5-a]pyridine]
13 | 8.22 | 1.3 | c1ccc(-c2cccn3cncc23)cc1 [Example 4, 8-phenylH-imidazo[1,5-a]pyridine]
14 | 36.5 | 14.5 | FC(F)(F)Oc1ccccc1-c1cccn2cncc12 [Example 21, 8-(2-(trifluoromethoxy)phenyl)H-imidazo[1,5-a]pyridine]
15 | 47.7 | 15.2 | Clc1ccccc1-c1cccn2cncc12 [Example 8, 8-(2-chlorophenyl)H-imidazo[1,5-a]pyridine]
16 | 18.9 | 5.5 | c1ccc(Cc2cccn3cncc23)cc1 [Example 2, 8-benzylH-imidazo[1,5-a]pyridine]
17 | 23.6 | 5.38 | c1ccc(COc2ccccc2-c2cccn3cncc23)cc1 [Example 15, 8-(2-(benzyloxy)phenyl)H-imidazo[1,5-a]pyridine]
18 | 10.9 | 2.51 | c1ccc(-c2cccc(-c3cccn4cncc34)c2)cc1 [Example 19, 8-(biphen-3-yl)H-imidazo[1,5-a]pyridine]
19 | 20.6 | 3.14 | Fc1ccccc1-c1cccn2cncc12 [Example 5, 8-(2-fluorophenyl)H-imidazo[1,5-a]pyridine]
20 | 10.6 | 1.87 | Fc1ccc(-c2cccn3cncc23)cc1 [Example 7, 8-(4-fluorophenyl)H-imidazo[1,5-a]pyridine]
21 | 5.51 | 1.11 | Clc1ccc(-c2cccn3cncc23)cc1 [Example 10, 8-(4-chlorophenyl)H-imidazo[1,5-a]pyridine]
22 | 36.5 | 11 | c1ccc(-c2ccccc2-c2cccn3cncc23)cc1 [Example 18, 8-(biphen-2-yl)H-imidazo[1,5-a]pyridine]
23 | 9.71 | 2.02 | Fc1cccc(-c2cccn3cncc23)c1 [Example 6, 8-(3-fluorophenyl)H-imidazo[1,5-a]pyridine]
24 | 13.6 | 3.98 | COc1ccccc1-c1cccn2cncc12 [Example 12, 8-(2-methoxyphenyl)H-imidazo[1,5-a]pyridine]
25 | 6.19 | 1.1 | COc1cccc(-c2cccn3cncc23)c1 [Example 13, 8-(3-methoxyphenyl)H-imidazo[1,5-a]pyridine]
